Data from US20220332774A1, “THERAPEUTIC MITOCHONDRIAL PEPTIDES” (priority 2019, published 2022).

What was measured:
H4-IIE Cells = assay: Glucose production in cultured H4-IIE cells; format: cell-based, rat; details: 24 h; for Percent of Control Activity: glucose concentration in medium relative to untreated cells, 5 μM peptide
Procedure: The effect of the peptides on glucose homeostasis can be assessed using an assay to monitor glucose production by cultured cells such as rat hepatocytes. Peptide arrays were initially prepared as 5 mM stock in DMSO and diluted to 0.5 mM in H2O; peptides were used at a final concentration of 5 μM (0.1% DMSO). Calculations for peptide concentrations based on approximate molecular weight of 2000 Daltons. H4-IIE rat hepatic cell line was purchased from American Type Culture Collection (Manassas, Va.). H4-IIE cells were seeded in standard medium (DMEM/high glucose+10% Fetal Bovine Serum+antibiotics) at 100,000 cells/well on 96-well plates and allowed to adhere overnight at 37° C. in a humidified atmosphere of 5% CO2/95% air. 24 h after seeding, the medium was removed, cells were rinsed with glucose free DMEM, and the medium replaced with Glucose Production Medium (glucose free DMEM+2 mM sodium pyruvate+10 mM sodium lactate+antibiotics). The cultures were placed at 37° C. in a humidified atmosphere of 5% CO2/95% air overnight. The next morning, the medium was removed and fresh Glucose Production Medium containing compounds was added; 5 uM peptide or 0.5-1 nM insulin as a potent inhibitor of glucose production. Cells were incubated for 24 h at 37° C. in a humidified atmosphere of 5% CO2/95% air. Following 24 h incubation, conditioned medium from each well was transferred to a fresh 96-well plate. Glucose concentrations in the medium were determined using a Glucose Assay kit (Abcam; Cambridge, Mass.) according to the manufacturer's instructions; absorbance measured using a Cytation 3 plate reader at 570 nm (BioTek, Winooski, Vt.). Untreated cells were used as reference for maximal glucose production. Absorbance values were expressed as percent control activity relative to untreated treated cells for 5 μM peptide. The relative standard deviation from plate to plate of untreated control was <25%. […] Glucose levels for 0.5-1 nM insulin treatment were <5% of the untreated control value. Data are presented as representative values from 2-3 independent experiments with each data point performed in triplicate in each independent experiment.

C2C12 Cells = assay: Glucose utilization in cultured C2C12 cells (myotubes); format: cell-based, mouse; details: 22 h; for Percent of Control Activity: glucose concentration in medium relative to untreated cells, 5 μM peptide
Procedure: The effect of the peptides on glucose homeostasis can be assessed using an assay to monitor glucose utilization by cultured cells such as mouse myotubes. Peptide arrays were initially prepared as 5 mM stock in DMSO and diluted to 0.5 mM in H2O; peptides were used at a final concentration of 5 μM (0.1% DMSO). Calculations for peptide concentrations based on approximate molecular weight of 2000 Daltons. C2C12 mouse muscle cell line was purchased from Millipore Sigma (Saint Louis, Mo.). C2C12 cells were seeded in standard medium (DMEM/low glucose (1 g/L)+10% Fetal Bovine Serum+antibiotics) at 7,500 cells/well on 96-well plates and grown to confluence at 37° C. in a humidified atmosphere of 5% CO2/95% air. Three days after plating the medium was removed and with Differentiation Medium (DMEM/low glucose (1 g/L)+2% Horse Serum+antibiotics) added. The cultures were placed at 37° C. in a humidified atmosphere of 5% CO2/95% air for 5 days with partially replacement of medium daily. After 5 days of differentiation, the medium was removed from myotube cultures and replaced with Assay Medium (DMEM/low glucose (1 g/L)+antibiotics). Culture were placed at 37° C. in a humidified atmosphere of 5% CO2/95% air for 5 h. Following the 5 h incubation the medium was removed and fresh Assay Medium containing compounds was added; 5 μM peptide or 1 mM metformin as a potent stimulator of glucose utilization. Cells were incubated for 22 h at 37° C. in a humidified atmosphere of 5% CO2/95% air. Following 22 h incubation, conditioned medium from each well was transferred to a fresh 96-well plate. Glucose concentrations in the medium were determined using a Glucose Assay kit (Abcam; Cambridge, Mass.) according to the manufacturer's instructions; absorbance measured using a Cytation 3 plate reader at 570 nm (BioTek, Winooski, Vt.). Untreated cells were used as reference for basal glucose utilization. Absorbance values were expressed as percent control activity relative to untreated treated cells for 5 μM peptide. The relative standard deviation from plate to plate of untreated control was <10%. […] Data presented are representative values from 2-3 independent experiments with each data point performed in triplicate in each independent experiment.

3T3-L1 Mouse Adipocytes = assay: Free fatty acid levels in cultured 3T3-L1 mouse adipocytes (isoproterenol stimulated); format: cell-based; details: for Percent of Isoproterenol Control Activity: free fatty acid in medium, 5 μM peptide, 20-22 h pre-incubation then 3 h with 0.1 nM isoproterenol, isoproterenol alone = 100%
Procedure: The effect of the peptides on fatty acid metabolism can be assessed using an assay to monitor free fatty acid levels produced by cultured cells such as mouse adipocytes. Peptide arrays were initially prepared as 5 mM stock in DMSO and diluted to 0.5 mM in H2O; peptides were used at a final concentration of 5 μM (0.1% DMSO). Calculations for peptide concentrations based on approximate molecular weight of 2000 Daltons. […] Mouse 3T3-L1 cells purchased from ZenBio (Research Triangle Park, NC) were seeded at 3,000 cells per well in 96-well plates in Pre-adipocyte Medium (Zen-Bio) and grown to confluence at 37° C. in a humidified atmosphere of 5% CO2/95% air. Two days after confluence, cells were placed in Adipocyte Differentiation Medium (Zen-Bio) and cultured for three additional days at 37° C. in a humidified atmosphere of 5% CO2/95% air. The culture medium was then replaced with Adipocyte Maintenance Medium (Zen-Bio) and the cells maintained for an additional 9 days at 37° C. in a humidified atmosphere of 5% CO2/95% air with partial medium replacement every other day. Following 12 days of differentiation, medium was replaced Adipocyte Maintenance Medium without insulin and the cultures placed at 37° C. in a humidified atmosphere of 5% CO2/95% air. On day 13 of differentiation, test peptides were added directly to each well (without replacing the medium) at a final concentration of 5 μM in 0.1% DMSO and incubated for 20-22 hours at 37° C. in a humidified atmosphere of 5% CO2/95% air. […] Cells were incubated for 3 hours in Assay Buffer (Zen-Bio) at 37° C. in a humidified atmosphere of 5% CO2/95% air. Following 3 h incubation, conditioned medium from each well was transferred to a fresh 96-well plate. Free fatty acid concentrations in the medium were determined using a Free Fatty Acid Assay kit (Zen-Bio) according to the manufacturer's instructions; absorbance was measured using a Cytation 3 plate reader at 540 nm (BioTek, Winooski, Vt.). Treatment with 0.1 nM isoproterenol alone was used as the free fatty acid level stimulatory control. Absorbance values were expressed as percent control activity relative to 0.1 nM isoproterenol alone treated cells, 100%. The relative standard deviation of the isoproterenol control was <10%. Insulin at 0.25 nM was used as a potent control for decreasing free fatty acid levels. […] Data presented are representative values from 2 independent experiments with each data point performed in triplicate in each independent experiment.

1 (MAAAPSGCPDPTS) [compound 1]
Percent of Control Activity (H4-IIE Cells): 128%
Percent of Control Activity (C2C12 Cells): 99%
Percent of Isoproterenol Control Activity (3T3-L1 Mouse Adipocytes): 85%

2 (MAASVERGFIFLV) [compound 2]
Percent of Control Activity (H4-IIE Cells): 119%
Percent of Control Activity (C2C12 Cells): 99%
Percent of Isoproterenol Control Activity (3T3-L1 Mouse Adipocytes): 93%

3 (MAGGFMLMIVVMKLMAPKMEETPA) [compound 3]
Percent of Control Activity (H4-IIE Cells): 118%
Percent of Control Activity (C2C12 Cells): 94%
Percent of Isoproterenol Control Activity (3T3-L1 Mouse Adipocytes): 91%

4 (MAHTFPLNKTSR) [compound 4]
Percent of Control Activity (H4-IIE Cells): 116%
Percent of Control Activity (C2C12 Cells): 101%
Percent of Isoproterenol Control Activity (3T3-L1 Mouse Adipocytes): 80%

5 (MAHYSQIPSRPHGWPPSD) [compound 5]
Percent of Control Activity (H4-IIE Cells): 122%
Percent of Control Activity (C2C12 Cells): 101%
Percent of Isoproterenol Control Activity (3T3-L1 Mouse Adipocytes): 98%

6 (MAIAVVYPKTTIIPPK) [compound 6]
Percent of Control Activity (H4-IIE Cells): 122%
Percent of Control Activity (C2C12 Cells): 100%
Percent of Isoproterenol Control Activity (3T3-L1 Mouse Adipocytes): 80%

8 (MAPPLPPLEPTVKLT) [compound 8]
Percent of Control Activity (H4-IIE Cells): 90%
Percent of Control Activity (C2C12 Cells): 102%
Percent of Isoproterenol Control Activity (3T3-L1 Mouse Adipocytes): 102%

9 (MAQTMPMYPNGSFFPE) [compound 9]
Percent of Control Activity (H4-IIE Cells): 90%
Percent of Control Activity (C2C12 Cells): 98%
Percent of Isoproterenol Control Activity (3T3-L1 Mouse Adipocytes): 98%

10 (MATKKNFMEKGTRAGDMGSKPHS) [compound 10]
Percent of Control Activity (H4-IIE Cells): 87%
Percent of Control Activity (C2C12 Cells): 100%
Percent of Isoproterenol Control Activity (3T3-L1 Mouse Adipocytes): 94%

11 (MAVVDGWVNTWVVPKSASPWKN) [compound 11]
Percent of Control Activity (H4-IIE Cells): 76%
Percent of Control Activity (C2C12 Cells): 96%
Percent of Isoproterenol Control Activity (3T3-L1 Mouse Adipocytes): 84%

13 (MCSCVYVYSYCKYMVCSHDKP) [compound 13]
Percent of Control Activity (H4-IIE Cells): 87%
Percent of Control Activity (C2C12 Cells): 101%
Percent of Isoproterenol Control Activity (3T3-L1 Mouse Adipocytes): 92%

14 (MDGCALLAVL) [compound 14]
Percent of Control Activity (H4-IIE Cells): 120%
Percent of Control Activity (C2C12 Cells): 100%
Percent of Isoproterenol Control Activity (3T3-L1 Mouse Adipocytes): 101%

15 (MDMVPQGKDEKL) [compound 15]
Percent of Control Activity (H4-IIE Cells): 88%
Percent of Control Activity (C2C12 Cells): 96%
Percent of Isoproterenol Control Activity (3T3-L1 Mouse Adipocytes): 90%

16 (MDSWVVGVNEWG) [compound 16]
Percent of Control Activity (H4-IIE Cells): 89%
Percent of Control Activity (C2C12 Cells): 100%
Percent of Isoproterenol Control Activity (3T3-L1 Mouse Adipocytes): 89%

18 (MEAMGLAWNQLWGVRFLPFLS) [compound 18]
Percent of Control Activity (H4-IIE Cells): 99%
Percent of Control Activity (C2C12 Cells): 97%
Percent of Isoproterenol Control Activity (3T3-L1 Mouse Adipocytes): 102%

19 (METDLDYSGLNSDHVGL) [compound 19]
Percent of Control Activity (H4-IIE Cells): 99%
Percent of Control Activity (C2C12 Cells): 94%
Percent of Isoproterenol Control Activity (3T3-L1 Mouse Adipocytes): 89%

20 (MFDQENVVTSTESSPS) [compound 20]
Percent of Control Activity (H4-IIE Cells): 97%
Percent of Control Activity (C2C12 Cells): 102%
Percent of Isoproterenol Control Activity (3T3-L1 Mouse Adipocytes): 88%

23 (MFHLRYHNHRYPHRRQSI) [compound 23]
Percent of Control Activity (H4-IIE Cells): 96%
Percent of Control Activity (C2C12 Cells): 99%
Percent of Isoproterenol Control Activity (3T3-L1 Mouse Adipocytes): 94%

24 (MFKLSFYFYVV) [compound 24]
Percent of Control Activity (H4-IIE Cells): 96%
Percent of Control Activity (C2C12 Cells): 94%
Percent of Isoproterenol Control Activity (3T3-L1 Mouse Adipocytes): 92%

25 (MFLVGWWGMV) [compound 25]
Percent of Control Activity (H4-IIE Cells): 94%
Percent of Control Activity (C2C12 Cells): 97%
Percent of Isoproterenol Control Activity (3T3-L1 Mouse Adipocytes): 91%

26 (MGACQGGSDESN) [compound 26]
Percent of Control Activity (H4-IIE Cells): 97%
Percent of Control Activity (C2C12 Cells): 99%
Percent of Isoproterenol Control Activity (3T3-L1 Mouse Adipocytes): 93%

27 (MGCDDNVVDVVVT) [compound 27]
Percent of Control Activity (H4-IIE Cells): 100%
Percent of Control Activity (C2C12 Cells): 95%
Percent of Isoproterenol Control Activity (3T3-L1 Mouse Adipocytes): 87%

28 (MGCSGSSVSQCYRVHTPQTKMPNAW) [compound 28]
Percent of Control Activity (H4-IIE Cells): 121%
Percent of Control Activity (C2C12 Cells): 100%
Percent of Isoproterenol Control Activity (3T3-L1 Mouse Adipocytes): 105%

29 (MGDCAVCDA) [compound 29]
Percent of Control Activity (H4-IIE Cells): 106%
Percent of Control Activity (C2C12 Cells): 109%
Percent of Isoproterenol Control Activity (3T3-L1 Mouse Adipocytes): 90%

30 (MGEGLEENPTNPITKPTLN) [compound 30]
Percent of Control Activity (H4-IIE Cells): 102%
Percent of Control Activity (C2C12 Cells): 102%
Percent of Isoproterenol Control Activity (3T3-L1 Mouse Adipocytes): 98%

31 (MGEVGLLWLGRI) [compound 31]
Percent of Control Activity (H4-IIE Cells): 101%
Percent of Control Activity (C2C12 Cells): 107%
Percent of Isoproterenol Control Activity (3T3-L1 Mouse Adipocytes): 78%

32 (MGGEWGMGVWTWGCFLVWM) [compound 32]
Percent of Control Activity (H4-IIE Cells): 100%
Percent of Control Activity (C2C12 Cells): 108%
Percent of Isoproterenol Control Activity (3T3-L1 Mouse Adipocytes): 94%

33 (MGGGVLLGLQ) [compound 33]
Percent of Control Activity (H4-IIE Cells): 100%
Percent of Control Activity (C2C12 Cells): 111%
Percent of Isoproterenol Control Activity (3T3-L1 Mouse Adipocytes): 103%

35 (MGGRWGLGWWRAG) [compound 35]
Percent of Control Activity (H4-IIE Cells): 100%
Percent of Control Activity (C2C12 Cells): 108%
Percent of Isoproterenol Control Activity (3T3-L1 Mouse Adipocytes): 98%

36 (MGLAAVCVCWVGWAGVVLM) [compound 36]
Percent of Control Activity (H4-IIE Cells): 101%
Percent of Control Activity (C2C12 Cells): 106%
Percent of Isoproterenol Control Activity (3T3-L1 Mouse Adipocytes): 103%

CN(C)C(=N)N=C(N)N [Metformin, reference compound]
reduction of extracellular glucose compared to untreated controls (C2C12 Cells; metformin 1 mM, across all plates): 50-70%

insulin [reference compound]
Glucose levels, % of the untreated control value (H4-IIE Cells; 0.5-1 nM insulin): < 5%
Free fatty acid levels (3T3-L1 Mouse Adipocytes; insulin 0.25 nM with 0.1 nM isoproterenol, 3 h): at or below levels for unstimulated control without isoproterenol
